Values quoted from earlier work as cited in patent US20070292887A1, “Immunohistochemical Methods” (Bayer Pharmaceuticals Corporation, priority 2003, published 2007).
Read-outs that look alike come from different tables or passages of the source.

Experiments:
[1] = tested on: MDA-MB-231 xenografts; conditions: MDA-MB-231 xenografts in mice
[2] = tested on: keratinocytes (normal skin); conditions: biopsies of normal skin prior to and following administration, humans
[3] = tested on: human cancer cell lines; conditions: in vitro
[4] = tested on: SKOV3 xenografts; conditions: SKOV3 xenografts in mice
[5] = tested on: human cancer cell lines; conditions: in vivo
[6] = tested on: SKOV (human ovarian cancer) cells; conditions: preincubation of SKOV cells

COc1cc2ncnc(Nc3ccc(F)c(Cl)c3)c2cc1OCCCN1CCOCC1 [ZD1839]
constitutive ERK MAP kinase activation [1]: inhibition
tumor growth rates [1]: reductions in tumor growth rates
expression of Ki-67 in keratinocytes [2]: decreased expression
expression of activated MAPK in keratinocytes [2]: decreased expression
proliferation of human cancer cell lines [3]: inhibited the proliferation
constitutive ERK MAP kinase activation [4]: inhibition
tumor growth rates [4]: reductions in tumor growth rates
proliferation of human cancer cell lines [5]: inhibited the proliferation
EGF-induced increases in activation of ERK MAP kinases [6]: block
EGF-induced increases in activation of PKB/Akt [6]: block
